# Laboratory results reported in patent US10966426B2, “Herbicidal compositions comprising phenylpyrimidines” (BASF SE, priority 2016, dated 2021).
# Assays:
# Assay type in all cases: in vivo
# Brachiaria decumbens = test: greenhouse pre-emergence treatment, BRADC; details: BRADC
# Procedure, shortened: (§1)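 Damage rated on 0 to 100 scale (0 = normal growth, 100 = no emergence or total above-ground kill) after 2-4 weeks at species-dependent 10-25° C or 20-35° C. Seeds sown per species in loamy sand, ~3.0% humus, treated right after sowing with aqueous spray of single actives or 10% emulsion-concentrate mixtures, then hooded; additive expectation by Colby.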
# Lolium perenne = test: greenhouse post-emergence treatment, LOLPE; details: 20 DAT, 2nd series of rows
# Description: The culture containers used were plastic pots containing loamy sand with approximately 3.0% of humus as substrate. The seeds of the test plants were sown separately for each species.
# To this end, the test plants were either sown directly, and grown in the same containers, or they were first grown separately as seedlings and transplanted into the test containers a few days prior to treatment.
# Depending on the species, the plants were kept at 10-25° C. and 20-35° C., respectively.
# The test period extended over 2 to 4 weeks. During this time, the plants were tended and their response to the individual treatments was evaluated.
# Evaluation was carried out using a scale from 0 to 100. 100 means no emergence of the plants, or complete destruction of at least the above-ground parts, and 0 means no damage or normal course of growth. A good herbicidal activity is given at values of at least 70, and very good herbicidal activity is given at values of at least 85.
# In the examples, the solvent used was water.
# In the examples below, using the method of S. R. Colby (1967) “Calculating synergistic and antagonistic responses of herbicide combinations”, Weeds 15, p. […] E=X+Y−(X·Y/100) where X=effect in percent using herbicide A at an application rate a; • Y=effect in percent using herbicide B at application rate b; • E=expected effect (in %) of herbicide A+herbicide B at application rates a+b.
# Digitaria sanguinalis = test: greenhouse pre-emergence treatment, DIGSA; details: DIGSA; for % activity, solo application: 62.5 gai/ha
# Procedure, shortened: as §1
# BRAPL = test: greenhouse pre-emergence treatment, BRAPL; details: Table X9, 21 DAT, solo Ex. 5 125 gai/ha
# Polygonum aviculare = test: greenhouse post-emergence treatment, POLAV; details: POLAV; for % activity, solo application: Table X4
# Procedure, shortened: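 Seeds sown per species in pots of loamy sand; seedlings either grown in place or transplanted days before treatment. Post-emergence spray of water-based liquor at 3–15 cm height. Injury rated 0–100 over 2 to 4 weeks.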
# Galium aparine = test: greenhouse pre-emergence treatment, GALAP; details: GALAP
# Procedure, shortened: as §1
# Bromus sterilis = test: greenhouse pre-emergence treatment, BROST; details: BROST
# Procedure, shortened: as §1
# Helianthus annuus = test: greenhouse pre-emergence treatment, HELAN; details: HELAN
# Procedure, shortened: as §1
# [1] = 20 DAT, solo Ex. 5 31.25 gai/ha
# [2] = Ex. 5 solo, 62.5 gai/ha, 20 DAT
# [3] = Table X9, 21 DAT, solo Ex. 5 125 gai/ha
# [4] = Table X13, 20 DAT, solo Ex. 5 125 gai/ha
smiles,measurement,setting,value
O=C(O)c1nc(C2CC2)ncc1-c1ccccc1Cl [Ex. 5],"% activity, solo application","Brachiaria decumbens; 62.5 gai/ha, 20 DAT, Table X2",80%
same,"% activity, solo application","Brachiaria decumbens; 125 gai/ha, 20 DAT, Table X6",95%
same,% activity,Brachiaria decumbens; [1],20%
same,% activity,"Brachiaria decumbens; 20 DAT, solo Ex. 5 62.5 gai/ha",60%
same,% activity,"Brachiaria decumbens; 20 DAT, solo Ex. 5 125 gai/ha",70%
same,% activity,Brachiaria decumbens; [2],60%
same,% activity,"Brachiaria decumbens; Ex. 5 solo, 125 gai/ha, 20 DAT",70%
same,% activity,"Brachiaria decumbens; Table X13, 20 DAT, solo Ex. 5 31.25 gai/ha",85%
same,% activity,"Brachiaria decumbens; solo, 31.25 gai/ha, 20 DAT",55%
same,% activity,"Brachiaria decumbens; solo, 62.5 gai/ha, 20 DAT",85%
same,% activity,Lolium perenne; solo Ex. 5 15 gai/ha,85%
same,% activity,Lolium perenne; solo Ex. 5 62.5 gai/ha,80%
same,% activity,Lolium perenne; solo Ex. 5 250 gai/ha,85%
same,% activity,Lolium perenne; solo Ex. 5 500 gai/ha,85%
same,"% activity, solo application","Digitaria sanguinalis; 20 DAT, Table X2",65%
same,"% activity, solo application","Digitaria sanguinalis; 20 DAT, Table X6",65%
same,% activity,Digitaria sanguinalis; [1],40%
same,% activity,Digitaria sanguinalis; [3],90%
same,% activity,Digitaria sanguinalis; [4],90%
same,% activity,"Digitaria sanguinalis; solo, 31.25 gai/ha, 20 DAT",65%
same,% activity,"Digitaria sanguinalis; solo, 125 gai/ha, 21 DAT",60%
same,% activity,"Digitaria sanguinalis; solo, 250 gai/ha, 21 DAT",65%
same,% activity,BRAPL,90%
same,"% activity, solo application","Polygonum aviculare; 125 gai/ha, 20 DAT",95%
same,"% activity, solo application","Polygonum aviculare; 250 gai/ha, 20 DAT",95%
same,% activity,"Polygonum aviculare; Ex. 5 solo, 62.5 gai/ha, 21 DAT",90%
same,% activity,"Polygonum aviculare; 20 DAT, solo Ex. 5 62.5 gai/ha",90%
same,% activity,"Polygonum aviculare; 20 DAT, solo Ex. 5 125 gai/ha",90%
same,% activity,"Polygonum aviculare; 20 DAT, solo Ex. 5 125 gai/ha (Table X66)",90%
same,"% activity, solo application","Galium aparine; 62.5 gai/ha, 20 DAT, Table X1",0%
same,"% activity, solo application","Galium aparine; 62.5 gai/ha, 20 DAT, Table X2",0%
same,"% activity, solo application","Galium aparine; 62.5 gai/ha, 20 DAT, Table X6",0%
same,"% activity, solo application","Galium aparine; 125 gai/ha, 20 DAT, Table X2",40%
same,% activity,Galium aparine; [2],0%
same,% activity,"Galium aparine; Ex. 5 solo, 125 gai/ha, 20 DAT",0%
same,% activity,Galium aparine; [1],0%
same,% activity,"Galium aparine; 20 DAT, solo Ex. 5 62.5 gai/ha",0%
same,% activity,"Galium aparine; 20 DAT, solo Ex. 5 125 gai/ha",0%
same,% activity,"Galium aparine; solo Ex. 5 31.25 gai/ha, 20 DAT",0%
same,% activity,"Galium aparine; solo Ex. 5 62.5 gai/ha, 20 DAT",0%
same,% activity,"Galium aparine; solo Ex. 5 125 gai/ha, 20 DAT",0%
same,% activity,Galium aparine; [3],0%
same,% activity,"Galium aparine; Table X9, 21 DAT, solo Ex. 5 250 gai/ha",0%
same,% activity,"Galium aparine; Table X10, 20 DAT, solo Ex. 5 62.5 gai/ha",0%
same,% activity,"Galium aparine; Table X10, 20 DAT, solo Ex. 5 125 gai/ha",20%
same,% activity,"Galium aparine; Table X10, 20 DAT, solo Ex. 5 250 gai/ha",35%
same,% activity,"Galium aparine; Table X11, 20 DAT, solo Ex. 5 62.5 gai/ha",0%
same,% activity,"Galium aparine; Table X11, 20 DAT, solo Ex. 5 125 gai/ha",0%
same,% activity,"Galium aparine; Table X13, 20 DAT, solo Ex. 5 62.5 gai/ha",20%
same,% activity,Galium aparine; [4],35%
same,% activity,"Galium aparine; solo, 31.25 gai/ha, 20 DAT",0%
same,% activity,"Galium aparine; solo, 62.5 gai/ha, 20 DAT",0%
same,% activity,"Galium aparine; solo, 125 gai/ha, 20 DAT",0%
same,% activity,"Galium aparine; solo, 250 gai/ha, 21 DAT",25%
same,"% activity, solo application","Bromus sterilis; 62.5 gai/ha, 20 DAT, Table X1",65%
same,"% activity, solo application","Bromus sterilis; 125 gai/ha, 20 DAT, Table X1",80%
same,"% activity, solo application","Bromus sterilis; 125 gai/ha, 20 DAT, Table X6",65%
same,% activity,Bromus sterilis; [1],5%
same,% activity,"Bromus sterilis; solo, 62.5 gai/ha, 20 DAT",45%
same,% activity,"Bromus sterilis; solo, 125 gai/ha, 21 DAT",75%
same,"% activity, solo application","Helianthus annuus; 31.25 gai/ha, 20 DAT, Table X6",0%
same,"% activity, solo application","Helianthus annuus; 62.5 gai/ha, 20 DAT, Table X1",35%
same,"% activity, solo application","Helianthus annuus; 125 gai/ha, 20 DAT, Table X2",40%
same,"% activity, solo application","Helianthus annuus; 125 gai/ha, 20 DAT, Table X6",40%
same,% activity,"Helianthus annuus; Ex. 5 solo, 125 gai/ha, 20 DAT",60%
same,% activity,Helianthus annuus; [1],0%
same,% activity,"Helianthus annuus; 20 DAT, solo Ex. 5 62.5 gai/ha",0%
same,% activity,"Helianthus annuus; solo, 31.25 gai/ha, 20 DAT",0%
same,% activity,"Helianthus annuus; solo, 62.5 gai/ha, 20 DAT",0%
same,% activity,"Helianthus annuus; solo, 125 gai/ha, 20 DAT",0%
same,% activity,"Helianthus annuus; solo, 125 gai/ha, 21 DAT",50%
same,% activity,"Helianthus annuus; solo, 250 gai/ha, 21 DAT",80%
